Test results reported in patent US20230028293A1, “MULTIPLE MYELOMA COMBINATION THERAPIES BASED ON PROTEIN TRANSLATION INHIBITORS AND IMMUNOMODULATORS” (The Regents of the University of Colorado, a body corporate, priority 2019, published 2023).
“Also recorded” adds a separate entry of the source.

What was measured:
[1] = test system: bone marrow plasma cells from normal donors; test: Sensitivity of healthy donor bone marrow plasma cells; format: cell-based; details: 50 nM, 48 h incubation
[2] = test system: MM cell lines (H929, MM.1S, U266); test: Seahorse glycolysis stress test (ECAR); format: cell-based; details: after 4 h
Protocol: MM cell lines were incubated with pomalidomide for 24 h, omacetaxine for 4 h, or in staggered combination. The cells were washed and resuspended in Agilent Seahorse XF DMEM Medium, pH 7.4 (Agilent Technologies, Santa Clara, Calif.). Glycolytic flux, extracellular acidification rate (ECAR) was measured on a Seahorse XFe96 Analyzer using the Seahorse XF Glycolysis Stress Test Kit according to manufacture instructions (Agilent Technologies).

c-MYC = test: Quantitative flow cytometry of c-MYC antigen density; format: cell-based; details: 24 h treatment
[3] = test system: primary MM cells from patient bone marrow aspirates; test: cells
Protocol: The effect of omacetaxine in primary patient samples was tested by incubating marrow mononuclear cells (MNCs) from patient bone marrow aspirates for 48 h and measuring the number of surviving MM cells by multiparameter flow cytometry.
De-identified primary myeloma samples were thawed in a 37° C. water bath and then incubated with 100 μg DNase I (Sigma-Aldrich) for 90 sec. Samples were washed twice with 10 mL Dulbecco's Phosphate Buffered Saline without calcium and magnesium (DPBS). Cells were cultured in RPMI1640 medium containing L-glutamine with 10% FBS and 100 U/mL penicillin, 100 ug/mL streptomycin (Thermo Fisher Scientific), and 2 ng/mL interleukin 6 IL-6 (PreproTech) at 37° C. for 2 h. Cells were then transferred to 96-well plates at […] cells/mL (90,000 MNCs per well) and treated for 48 h. Stock solutions of drug were prepared at 10 mM in dimethylsulfoxide (DMSO) and stored at −20° C. until use.
After 48 h treatment, the primary samples were washed in 1× cold DPBS and re-suspended in BD Brilliant Stain Buffer (BD Biosciences, San Jose Calif.) in a 96-well V-bottom plate. Cells were treated with FcR Blocking Reagent (Miltenyi Biotec, San Diego Calif.) for 5 min and then surface stained with anti-CD19-BV786 anti-CD45-BV510, anti-CD38-PerCP-Cy5.5, anti-CD138-BV421, and anti-CD319-Alexa647 or anti-CD46-Alexa647 antibodies for 10 min on ice. Intracellular staining with anti-kappa-BV605 and anti-lambda-PE light chains was performed after paraformaldehyde fixation and permeabilization. All flow cytometry antibodies were purchased from BD Biosciences. After staining, samples were washed and resuspended with 100 μl DPBS containing 2% FBS (FACS buffer). Viability staining was done using the LIVE/DEAD Fixable Near-IR Dead Cell Stain Kit (Invitrogen, Carlsbad Calif.) by adding 1 μl of 10-fold diluted stain to each well. Flow cytometry data was collected using a BD FACSCelesta Multicolor Cell Analyzer (BD Biosciences, San Jose Calif.) equipped with a HTS. For each sample a fixed volume of 175 μL was collected by the HTS. Flow cytometry data analysis was completed using FlowJo software (FlowJo LLC, Ashland Oreg.). Myeloma populations were analyzed by gating CD19− CD45+/−CD38+ CD138+ based on the cells expressing clonal light chain restriction in each sample.

MCL1 = test: Quantitative intracellular flow cytometry of MCL1; format: cell-based; details: 50 nM, 6 h
Protocol: Quantitative flow cytometry was used to measure MCL1 and BCL2 densities per cell. Anti-MCL1 and anti-BCL2 antibodies were labeled with Alexa Fluor 647 (Molecular Probes/life Technologies) according to manufacturer's instructions. Intracellular staining of MCL1 and BCL2 was conducted following permeabilization with the Cytofix/Cytoperm kit (BD). Mean fluorescence intensity was converted to molecules of equivalent soluble fluorochrome (MESF) by generating a standard curve with Quantum™ beads (Bangs Labs, Fishers, Ind.). The fluorophore-to-antibody ratio of the labeled antibodies was determined using Simply Cellular® anti-mouse IgG beads (Bangs Labs). Finally, conversion of MESF to cell surface antigen density was calculated by dividing by the fluorophore-to-antibody ratio.

MM cell lines [4] = test: Two-drug combination matrix in MM cell lines, ZIP synergy; format: cell-based
MM cell lines [5] = test: as above; format: cell-based; remark: listed apart in the source
Protocol: In this example, possible candidates for use in combination with omacetaxine were examined, focusing on those that are currently clinically available. Omacetaxine was applies in combination with various anti-myeloma agents to MM cell lines Amo-1, L363, and U266 in two-drug combination matrices, with cell viability being measured after 96 h incubation. […] The […] for synergy of omacetaxine with Len and Pom were 13.89 and 11.24, respectively, with a broad range of concentrations showing a productive interaction (FIGS. 6B and 6D).
Either CellTiter-Glo Luminescent Cell Viability or CellTiter 96 AQueous MTS Cell Proliferation assay (Promega, Madison Wis.) were used to generate dose response curves of myeloma cell line proliferation treated with various anti-myeloma agents. Working solutions of CellTiter-Glo or CellTiter AQueous reagent were prepared per manufacturer instructions. Cells were combined with drug of interest at a concentration of 50,000 cells/well and incubated in 96-well culture plates at 37° C. for 96 h. After the incubation, the viability or proliferation results were obtained via Vmax Kinetic Microplate Reader (Molecular Devices, Sunnyvale Calif.). Cell line toxicity was also measured using high throughput flow cytometry.
Drug combination studies were set up using a full matrix design with myeloma cell lines or primary samples. Synergy was calculated using ZIP delta score via the SnergyFinder online tool (synergyfinder.fimm.fi). Combination index values were calculated using the CompuSyn software (ComboSyn Inc).

COC(=O)C[C@](O)(CCCC(C)(C)O)C(=O)O[C@@H]1C(OC)=C[C@]23CCCN2CCc2cc4c(cc2[C@H]13)OCO4 [omacetaxine, Omacetaxine mepesuccinate]
cytotoxicity to normal plasma cells [1]: cytotoxic
effect on metabolism of myeloma cell lines (Seahorse, ECAR) [2]: shut down metabolism
c-MYC protein level in MM cell lines (c-MYC): decreases
cytotoxicity in relation to MCL1 priming (BH3 profiling) of primary samples [3]: potent anti-myeloma activity in samples that were not MCL1 primed
patient samples with >50% reduction in viable MM cells (39/50) ([3]; 50 nM, 48 h, 50 patient samples): 78%
cross-resistance in relapsed/refractory patients resistant to PI and IMiDs ([3]; 50 nM, 48 h ex vivo): did not show cross-resistance
EC50 ([3]; Homo sapiens, 48 h, read-out: EC50 of decrease in MM cell viability ex vivo): 25 to 100 nM
MCL1 expression in myeloma cells (MCL1): rapidly downregulated
synergy with CC-220 (MM cell lines [4]; H929 cells): synergistic
combination with dexamethasone (MM cell lines [4]; MM.1S cells): synergistic
ZIP δ-score for synergy with Len (MM cell lines [4]; combination with lenalidomide, MM.1S cells, 96 h): 13.89
ZIP δ-score for synergy with Pom (MM cell lines [4]; omacetaxine with pomalidomide, MM.1S cells, 96 h): 11.24
synergy with the PI bortezomib (MM cell lines [4]; three MM cell lines (U266, MM.1S, H929)): lack of synergy; also recorded: no significant enhanced activity
combination with dexamethasone versus single agent omacetaxine (MM cell lines [5]; L363 and U266 cells): decreased activity
synergy with lenalidomide (cell viability) (MM cell lines [5]; combination with Len, 96 h): synergistic in all cell lines tested
synergy with pomalidomide (cell viability) (MM cell lines [5]; omacetaxine combined with Pom, 96 h): synergistic in all cell lines tested
synergy with dexamethasone, over cell lines tested (MM cell lines [5]; three MM cell lines): synergistic in only ⅓ MM cell lines tested
